Broadly, the Km is the concentration of substrate that gives half-maximal velocity.

This test has as its system T1, β-glucosidase isoform II (β-glucosidase II, Sebg).
T1 construct: native, purified from fruit epicarp and mesocarp
Description: p-nitrophenol release, nonlinear regression. Format: biochemical, Sechium edule. To be noted: 40 °C, 0.2 M sodium citrate pH 5.0 (pH 5.5). The text has this:
p-nitrophenol release, nonlinear regression on β-glucosidase isoform II (β-glucosidase II, Sebg)
As to `C[C@H]1O[C@@H](Oc2ccc([N+](=O)[O-])cc2)[C@H](O)[C@@H](O)[C@H]1O` [pNPFuc, p-Nitrophenyl-β-D-fucopyranoside], the Km amounted to 16.1 ± 2.62 mM.

As for `O=[N+]([O-])c1ccc(O[C@@H]2O[C@H](CO)[C@H](O)[C@H](O)[C@H]2O)cc1` [pNPGal, p-Nitrophenyl-β-D-galactopyranoside], the Km came to 5.72 ± 0.45 mM.

As to `O=[N+]([O-])c1ccc(O[C@@H]2O[C@H](CO)[C@@H](O)[C@H](O)[C@H]2O)cc1` [pNPGlc, p-Nitrophenyl-β-D-glucopyranoside], the Km turned out to be 4.59 ± 0.49 mM.
